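All cell lines were grown in 96-well plates and treated with compound for 48 hours. GI50 is the concentration that inhibits growth by half.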 Activity calls are given as the source filed them. Rule as the data show it: active = GI50 up to about 1.1 µM and inactive = higher.
Key:
Assay in all cases: inhibition of tumour cell growth, NCI panel, 48 h
[1] = tested on: OVCAR-5
[2] = tested on: RPMI-8226
[3] = tested on: Malme-3M
[4] = tested on: HL-60
[5] = tested on: NCI-H522
[6] = tested on: 786-0
[7] = tested on: EKVX
[8] = tested on: MOLT-4
[9] = tested on: RXF 393
[10] = tested on: SNB-75
[11] = tested on: LXFL 529
[12] = tested on: UACC-62
[13] = tested on: UO-31
[14] = tested on: HT-29
[15] = tested on: SF-268
[16] = tested on: SK-MEL-28

Measured: GI50

CC(=O)OCCOCNC(=S)N/N=C/c1cc(Br)cs1
inactive: [1] > 100 µM | [2] > 100 µM | [3] > 100 µM | [4] > 100 µM | [5] > 100 µM | [6] > 100 µM | [7] > 100 µM | [8] > 100 µM | [9] > 100 µM | [10] > 100 µM | [11] > 100 µM | [12] > 100 µM | [13] > 100 µM | [14] > 100 µM | [15] > 100 µM | [16] > 100 µM

Cc1cc(N(CCC#N)S(=O)(=O)c2ccccc2)ccc1C=O
inactive: [1] > 100 µM | [2] > 100 µM | [3] > 100 µM | [4] > 100 µM | [5] > 100 µM | [6] > 100 µM | [7] > 100 µM | [8] > 100 µM | [9] > 100 µM | [10] > 100 µM | [11] > 100 µM | [12] > 100 µM | [13] > 100 µM | [14] > 100 µM | [15] > 100 µM | [16] > 100 µM

CC(C)(C)NCC(COc1ccc([N+](=O)[O-])cc1)OP(c1ccccc1)c1ccccc1 (stereo not drawn)
inactive: [1] 82.4 µM | [2] 13.5 µM | [3] 25 µM | [4] 19.7 µM | [5] 19.3 µM | [6] 29 µM | [7] 53.1 µM | [8] 18.9 µM | [9] 30.3 µM | [10] 33.7 µM | [11] 19.3 µM | [12] 44.4 µM | [13] 20.6 µM | [14] 27.7 µM | [15] 49.1 µM | [16] 55 µM

Clc1ccc2c(c1)-c1c3c(nn1-c1ccccc1)-c1ccccc1SC3O2 (stereo not drawn)
inactive: [1] > 100 µM | [2] > 100 µM | [3] > 100 µM | [4] 79.4 µM | [5] 29 µM | [6] > 100 µM | [7] > 100 µM | [8] > 100 µM | [9] > 100 µM | [10] 82.6 µM | [11] > 100 µM | [13] > 100 µM | [14] > 100 µM | [15] > 100 µM | [16] > 100 µM

CC(C)C(C(=O)O)N(CC1(O)OCC(O)C(O)C1O)N=O (stereo not drawn)
inactive: [1] > 100 µM | [2] > 100 µM | [3] > 100 µM | [4] > 100 µM | [5] > 100 µM | [6] > 100 µM | [7] > 100 µM | [8] > 100 µM | [9] > 100 µM | [10] > 100 µM | [11] > 100 µM | [12] > 100 µM | [13] > 100 µM | [14] > 100 µM | [16] > 100 µM

Reference: ChEMBL document CHEMBL1201862, “PubChem BioAssay data set” (2004)
